Laboratory results as given in patent publication US20240158446A1, “CYCLIC COMPOUND HAVING SELECTIVE INHIBITORY ACTION ON KRAS OVER HRAS AND NRAS” (CHUGAI SEIYAKU KABUSHIKI KAISHA, priority 2021, published 2024).

Legend:
[1] = molecular target: GDP-bound KRAS wild-type protein (Homo sapiens, UniProt P01116); assay: Binding to KRAS by surface plasmon resonance (SPR), Single Cycle Kinetics; settings: SPR Single Cycle Kinetics, GDP-bound KRAS wild-type protein, 1:1 binding model; read-out: KRAS KD
[2] = molecular target: GDP-bound NRAS wild-type protein (Homo sapiens, UniProt P01111); assay: Binding to NRAS by surface plasmon resonance (SPR), Single Cycle Kinetics; settings: SPR KD ratio NRAS/KRAS, class symbols
[3] = molecular target: GDP-bound HRAS wild-type protein (Homo sapiens, UniProt P01112); assay: Binding to HRAS by surface plasmon resonance (SPR), Single Cycle Kinetics; settings: SPR KD ratio HRAS/KRAS, class symbols
[4] = system: human lung cancer strain NCI-H441;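 also: cell proliferation inhibition after four days measured by CellTiter-Glo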

GDP-bound NRAS wild-type protein, sequence (P01111 whole entry): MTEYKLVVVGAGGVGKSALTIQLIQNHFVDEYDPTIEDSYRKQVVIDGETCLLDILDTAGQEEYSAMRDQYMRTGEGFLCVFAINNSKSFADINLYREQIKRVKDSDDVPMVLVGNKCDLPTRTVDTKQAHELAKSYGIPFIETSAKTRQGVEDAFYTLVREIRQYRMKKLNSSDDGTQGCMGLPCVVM
GDP-bound KRAS wild-type protein, sequence (P01116 whole entry): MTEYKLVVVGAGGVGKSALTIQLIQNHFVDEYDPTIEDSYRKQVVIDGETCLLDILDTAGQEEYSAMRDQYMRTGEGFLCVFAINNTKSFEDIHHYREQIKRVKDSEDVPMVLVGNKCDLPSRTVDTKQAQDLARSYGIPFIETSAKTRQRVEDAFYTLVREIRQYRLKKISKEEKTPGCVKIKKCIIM
GDP-bound HRAS wild-type protein, sequence (P01112 whole entry): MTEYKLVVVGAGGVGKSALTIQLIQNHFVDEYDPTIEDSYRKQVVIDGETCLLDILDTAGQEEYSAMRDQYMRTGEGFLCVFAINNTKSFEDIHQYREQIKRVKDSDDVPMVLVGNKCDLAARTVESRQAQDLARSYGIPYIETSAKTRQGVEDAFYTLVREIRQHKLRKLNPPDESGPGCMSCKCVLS

| SMILES | Kd [1] | IC50 [4] | NRAS/KRAS (ratio of KD value with respect to GDP-bound NRAS wild-type protein to KD value with respect to KRAS) [2] | HRAS/KRAS (ratio of KD value with respect to GDP-bound HRAS wild-type protein to KD value with respect to KRAS) [3] |
| --- | --- | --- | --- | --- |
| CCC[C@H]1C(=O)N[C@@H]([C@@H](C)CC)C(=O)N(C2CC2)CC(=O)N(C)[C@H]2C/C=C\CCN(C2=O)[C@@H](Cc2ccc(C)cc2)C(=O)N(C)CC(=O)N[C@@H](CCc2ccc(Cl)c(Cl)c2)C(=O)N2C[C@H](OCC)C[C@H]2C(=O)NC2(CC(C)(C)C2)C(=O)N(C)[C@@H](CC(C)(C)C)C(=O)N(C)[C@H](C(=O)N(C)C)CC(=O)N1C [PP2726] | 1.1 nM | 51 nM | AA (a compound having 20 or more is denoted as AA) | A (a compound having 10 or more and less than 20 is denoted as A) |
| CCOC[C@H]1C(=O)N[C@@H]([C@@H](C)CC)C(=O)N(C)CC(=O)N(C)[C@H]2C/C=C\CCN(C2=O)[C@@H](Cc2ccc(C(F)(F)F)cc2)C(=O)N(C)CC(=O)N[C@@H](CCc2ccc(C(F)(F)F)c(OC)c2)C(=O)N2C[C@H](OCC)C[C@H]2C(=O)NC2(CC(C)(C)C2)C(=O)N(C)[C@@H](CC(C)(C)C)C(=O)N(C)[C@H](C(=O)N(C)C)CC(=O)N1C [PP2736] | 0.061 nM | 7.5 nM | A (a compound having 10 or more and less than 20 is denoted as A) | A (a compound having 10 or more and less than 20 is denoted as A) |
| CCOC[C@H]1C(=O)N[C@@H]([C@@H](C)CC)C(=O)N(C)CC(=O)N(C)[C@H]2C/C=C\CCN(C2=O)[C@@H](Cc2ccc(C(F)(F)F)cc2)C(=O)N(C)CC(=O)N[C@@H](CCc2ccc(Cl)c(Cl)c2)C(=O)N2C[C@H](OCC)C[C@H]2C(=O)NC2(CC(C)(C)C2)C(=O)N(C)[C@@H](CC(C)(C)C)C(=O)N(C)[C@H](C(=O)N(C)C)CC(=O)N1C [PP2740] | 0.17 nM | 24.2 nM | AA (a compound having 20 or more is denoted as AA) | A (a compound having 10 or more and less than 20 is denoted as A) |
| CCO[C@@H]1C[C@H]2C(=O)NC3(CC(C)(C)C3)C(=O)N(C)[C@@H](CC(C)(C)C)C(=O)N(C)[C@H](C(=O)N(C)C)CC(=O)N(C)[C@@H](COC)C(=O)N[C@@H]([C@@H](C)CC)C(=O)N(C3CC3)CC(=O)N(C)[C@H]3C/C=C\CCN(C3=O)[C@@H](Cc3ccc(C(F)(F)F)cc3)C(=O)N(C)CC(=O)N[C@@H](CCc3cc(F)c(C(F)(F)F)c(F)c3)C(=O)N2C1 [PP2744] | 0.23 nM | 10.7 nM | A (a compound having 10 or more and less than 20 is denoted as A) | A (a compound having 10 or more and less than 20 is denoted as A) |
| CCC[C@H]1C(=O)N[C@@H]([C@@H](C)CC)C(=O)N(C2CC2)CC(=O)N(C)[C@H]2C/C=C\CCN(C2=O)[C@@H](Cc2ccc(C(F)(F)F)cc2)C(=O)N(C)CC(=O)N[C@@H](CCc2ccc(C(F)(F)F)c(OC)c2)C(=O)N2C[C@H](OCC)C[C@H]2C(=O)NC2(CC(C)(C)C2)C(=O)N(C)[C@@H](CC(C)(C)C)C(=O)N(C)[C@H](C(=O)N(C)C)CC(=O)N1C [PP2746] | 0.28 nM | 10.2 nM | A (a compound having 10 or more and less than 20 is denoted as A) | A (a compound having 10 or more and less than 20 is denoted as A) |
| CCO[C@@H]1C[C@H]2C(=O)NC3(CC(C)(C)C3)C(=O)N(C)[C@@H](CC(C)(C)C)C(=O)N(C)[C@H](C(=O)N(C)C)CC(=O)N(C)[C@@H](COC)C(=O)N[C@@H]([C@@H](C)CC)C(=O)N(C3CC3)CC(=O)N(C)[C@H]3C/C=C\CCN(C3=O)[C@@H](Cc3ccc(C(F)(F)F)cc3)C(=O)N(C)CC(=O)N[C@@H](CCc3ccc(C(F)(F)F)c(OC)c3)C(=O)N2C1 [PP2748] | 0.2 nM | 7.1 nM | A (a compound having 10 or more and less than 20 is denoted as A) | A (a compound having 10 or more and less than 20 is denoted as A) |

Continued by falling Kd [1], values first:

| Kd [1] | IC50 [4] | SMILES | NRAS/KRAS (ratio of KD value with respect to GDP-bound NRAS wild-type protein to KD value with respect to KRAS) [2] | HRAS/KRAS (ratio of KD value with respect to GDP-bound HRAS wild-type protein to KD value with respect to KRAS) [3] |
| --- | --- | --- | --- | --- |
| 1.1 nM | 54.3 nM | CCOC[C@H]1C(=O)N[C@@H]([C@@H](C)CC)C(=O)N(C2CC2)CC(=O)N(C)[C@H]2C/C=C\CCN(C2=O)[C@@H](Cc2ccc(C)cc2)C(=O)N(C)CC(=O)N[C@@H](CCc2ccc(Cl)c(Cl)c2)C(=O)N2C[C@H](OCC)C[C@H]2C(=O)NC2(CC(C)(C)C2)C(=O)N(C)[C@@H](CC(C)(C)C)C(=O)N(C)[C@H](C(=O)N(C)C)CC(=O)N1C [PP2728] | AA (a compound having 20 or more is denoted as AA) | A (a compound having 10 or more and less than 20 is denoted as A) |
| 0.17 nM | 8.5 nM | CCC[C@H]1C(=O)N[C@@H]([C@@H](C)CC)C(=O)N(C)CC(=O)N(C)[C@H]2C/C=C\CCN(C2=O)[C@@H](Cc2ccc(C(F)(F)F)cc2)C(=O)N(C)CC(=O)N[C@@H](CCc2ccc(Cl)c(Cl)c2)C(=O)N2C[C@H](OCC)C[C@H]2C(=O)NC2(CC(C)(C)C2)C(=O)N(C)[C@@H](CC(C)(C)C)C(=O)N(C)[C@H](C(=O)N(C)C)CC(=O)N1C [PP2738] | AA (a compound having 20 or more is denoted as AA) | A (a compound having 10 or more and less than 20 is denoted as A) |
| 0.1 nM | 3.1 nM | CCC[C@H]1C(=O)N[C@@H]([C@@H](C)CC)C(=O)N(C)CC(=O)N(C)[C@H]2C/C=C\CCN(C2=O)[C@@H](Cc2ccc(C(F)(F)F)cc2)C(=O)N(C)CC(=O)N[C@@H](CCc2ccc(C(F)(F)F)c(OC)c2)C(=O)N2C[C@H](OCC)C[C@H]2C(=O)NC2(CC(C)(C)C2)C(=O)N(C)[C@@H](CC(C)(C)C)C(=O)N(C)[C@H](C(=O)N(C)C)CC(=O)N1C [PP2734] | A (a compound having 10 or more and less than 20 is denoted as A) | B (a compound having 3 or more and less than 10 is denoted as B) |
| 0.067 nM | 5.3 nM | CCOC[C@H]1C(=O)N[C@@H]([C@@H](C)CC)C(=O)N(C)CC(=O)N(C)[C@H]2C/C=C\CCN(C2=O)[C@@H](Cc2ccc(C(F)(F)F)cc2)C(=O)N(C)CC(=O)N[C@@H](CCc2cc(F)c(C(F)(F)F)c(F)c2)C(=O)N2C[C@H](OCC)C[C@H]2C(=O)NC2(CC(C)(C)C2)C(=O)N(C)[C@@H](CC(C)(C)C)C(=O)N(C)[C@H](C(=O)N(C)C)CC(=O)N1C [PP2732] | A (a compound having 10 or more and less than 20 is denoted as A) | A (a compound having 10 or more and less than 20 is denoted as A) |
